≈ marks a conversion by molar mass, not a printed value.
Legend:
[1] = published CLSI MIC used as test concentration; species not given; cited from earlier work
S. pneumoniae = details: published CLSI MIC used as test concentration; cited from earlier work
K. pneumoniae = details: published CLSI MIC used as test concentration; cited from earlier work
E. coli [2] = details: published CLSI MIC used as test concentration; cited from earlier work
C. albicans = details: published CLSI MIC used as test concentration; antifungals tested for C. albicans; cited from earlier work
E. faecalis = details: published CLSI MIC used as test concentration; cited from earlier work
S. aureus = details: published CLSI MIC used as test concentration; cited from earlier work
E. coli [3] = assay: MAST: succinate production after 4 h incubation with antimicrobial; format: cell-based, Escherichia coli; details: AMP and SXT resistant E. coli strain, antibiotics at MIC
Text: All chemicals were obtained from Sigma-Aldrich (St. Louis, Mo. USA), VWR (Radnor, Pa. USA), or Fisher Scientific (Waltham, Mass. USA) unless otherwise specified. Clinical isolates used in this study were obtained from bloodstream infected patients. All strains were first identified and tested for antibiotic susceptibility using a clinical laboratory testing pipeline (plating on selective medium for single colony isolation, Gram staining, MALDI-TOF-MS species identification, and sub-culturing for purity and inoculation onto VITEK 2 (bioMerieux) antimicrobial susceptibility panels), and subsequently frozen as cryostocks. With the exception of S. pneumoniae, all strains were routinely grown in Mueller Hinton medium (BD Difco, Mississauga, ON, Canada). […] Supernatant was then diluted 1:10 with 50% LC-MS grade methanol and analyzed using UHPLC-MS. […]
To assess MAST as a potential clinical tool, three patient isolates for each target pathogen (2 each for S. aureus and P. aeruginosa) were analyzed. […] Both bactericidal (penicillins, cephalosporins, carbapenems, glycopeptides, aminoglycosides and fluoroquinolones) and bacteriostatic (macrolides, tetracyclines, and trimethoprim-sulfamethoxazole) antibiotic classes were evaluated.

KP = assay: MAST: hypoxanthine production after 4 h incubation with antimicrobial; format: cell-based, Klebsiella pneumoniae
Text: All chemicals were obtained from Sigma-Aldrich (St. Louis, Mo. USA), VWR (Radnor, Pa. USA), or Fisher Scientific (Waltham, Mass. USA) unless otherwise specified. Clinical isolates used in this study were obtained from bloodstream infected patients. All strains were first identified and tested for antibiotic susceptibility using a clinical laboratory testing pipeline (plating on selective medium for single colony isolation, Gram staining, MALDI-TOF-MS species identification, and sub-culturing for purity and inoculation onto VITEK 2 (bioMerieux) antimicrobial susceptibility panels), and subsequently frozen as cryostocks. With the exception of S. pneumoniae, all strains were routinely grown in Mueller Hinton medium (BD Difco, Mississauga, ON, Canada). S. pneumoniae isolates were first revived on trypticase soy agar plates containing sheep blood (BD BBL, Mississauga, ON, Canada) and then sub-cultured into Mueller Hinton medium supplemented with catalase (1000 U/mL). For biomarker discovery and validation of biomarkers using MPAs, exponential phase cultures were used to seed 96 well culture plates (Corning, N.Y., N.Y. USA) containing Mueller Hinton medium with 10% donated human blood to a 0.5 McFarland (OD600˜0.07 or ˜1.5×10^8 CFU/mL). […] Supernatant was then diluted 1:10 with 50% LC-MS grade methanol and analyzed using UHPLC-MS. […]

P. aeruginosa = details: published CLSI MIC used as test concentration; cited from earlier work

penicillin
minimum inhibitory concentrations [1]: 0.06 µg/mL

Cc1onc(-c2ccccc2)c1C(=O)N[C@@H]1C(=O)N2[C@@H]1SC(C)(C)[C@@H]2C(=O)O [OXA, oxacillin]
minimum inhibitory concentrations [1]: 2 µg/mL (≈ 4.98 µM)

CO/N=C(\C(=O)N[C@@H]1C(=O)N2C(C(=O)O)=C(CSc3nc(=O)c(=O)[nH]n3C)CS[C@H]12)c1csc(N)n1 [CRO, Ceftriaxone]
minimum inhibitory concentrations (S. pneumoniae): 0.5 µg/mL (≈ 0.902 µM) | minimum inhibitory concentrations (K. pneumoniae): 1 µg/mL (≈ 1.8 µM) | minimum inhibitory concentrations (E. coli [2]): 1 µg/mL (≈ 1.8 µM)

C[C@@H]1[C@H](O)[C@@H](C)/C=C/C=C/C=C/C=C/C=C/C=C/C=C/[C@H](O[C@@H]2O[C@H](C)[C@@H](O)[C@H](N)[C@@H]2O)C[C@@H]2O[C@](O)(C[C@@H](O)C[C@@H](O)[C@H](O)CC[C@@H](O)C[C@@H](O)CC(=O)O[C@H]1C)C[C@H](O)[C@H]2C(=O)O [AMB, amphotericin B]
minimum inhibitory concentrations (C. albicans): 2 µg/mL (≈ 2.16 µM)

Nc1nc(=O)[nH]cc1F [5FC, 5-flucytosine]
minimum inhibitory concentrations (C. albicans): 0.5 µg/mL (≈ 3.87 µM)

CN[C@H](CC(C)C)C(=O)N[C@H]1C(=O)N[C@@H](CC(N)=O)C(=O)N[C@H]2C(=O)N[C@H]3C(=O)N[C@H](C(=O)N[C@H](C(=O)O)c4cc(O)cc(O)c4-c4cc3ccc4O)[C@H](O)c3ccc(c(Cl)c3)Oc3cc2cc(c3O[C@@H]2O[C@H](CO)[C@@H](O)[C@H](O)[C@H]2O[C@H]2C[C@](C)(N)[C@H](O)[C@H](C)O2)Oc2ccc(cc2Cl)[C@H]1O [VAN, vancomycin]
minimum inhibitory concentrations (S. pneumoniae): 1 µg/mL (≈ 0.69 µM) | minimum inhibitory concentrations (E. faecalis): 4 µg/mL (≈ 2.76 µM) | minimum inhibitory concentrations (S. aureus): 2 µg/mL (≈ 1.38 µM)

CC1(C)S[C@@H]2[C@H](NC(=O)[C@H](N)c3ccccc3)C(=O)N2[C@H]1C(=O)O [AMP, ampicillin]
succinate production in presence of antibiotic versus absence of antibiotics (E. coli [3]): comparable | minimum inhibitory concentrations [1]: 8 µg/mL (≈ 22.9 µM)

CC(C)(O/N=C(\C(=O)N[C@@H]1C(=O)N2C(C(=O)[O-])=C(C[n+]3ccccc3)CS[C@H]12)c1csc(N)n1)C(=O)O [CAZ, ceftazidime]
minimum inhibitory concentrations [1]: 8 µg/mL (≈ 14.6 µM)

Cc1nnc(SCC2=C(C(=O)O)N3C(=O)[C@@H](NC(=O)Cn4cnnn4)[C@H]3SC2)s1 [CFX, cefazolin]
minimum inhibitory concentrations [1]: 4 µg/mL (≈ 8.8 µM)

gentamicin
minimum inhibitory concentrations (E. faecalis): 500 µg/mL | minimum inhibitory concentrations [1]: 4 µg/mL

C[C@@H](O)[C@H]1C(=O)N2C(C(=O)O)=C(S[C@@H]3CN[C@H](C(=O)N(C)C)C3)[C@H](C)[C@H]12 [MEM, meropenem]
minimum inhibitory concentrations (S. pneumoniae): 0.25 µg/mL (≈ 0.652 µM) | minimum inhibitory concentrations (K. pneumoniae): 1 µg/mL (≈ 2.61 µM) | hypoxanthine production (KP; drug sensitive strains, range of meropenem concentrations): incremental reduction in hypoxanthine production proportional to meropenem concentrations | hypoxanthine production (KP; resistant strains, clinically-relevant antibiotic concentrations): remain unaffected | minimum inhibitory concentrations (P. aeruginosa): 2 µg/mL (≈ 5.22 µM) | minimum inhibitory concentrations (E. coli [2]): 1 µg/mL (≈ 2.61 µM)

CC[C@H]1OC(=O)[C@H](C)[C@@H](O[C@H]2C[C@@](C)(OC)[C@@H](O)[C@H](C)O2)[C@H](C)[C@@H](O[C@@H]2O[C@H](C)C[C@H](N(C)C)[C@H]2O)[C@](C)(O)C[C@@H](C)C(=O)[C@H](C)[C@@H](O)[C@]1(C)O [ERY, erythromycin]
minimum inhibitory concentrations (S. pneumoniae): 0.25 µg/mL (≈ 0.341 µM) | minimum inhibitory concentrations (S. aureus): 0.5 µg/mL (≈ 0.681 µM)

OC(Cn1cncn1)(Cn1cncn1)c1ccc(F)cc1F [FLC, fluconozole]
minimum inhibitory concentrations (C. albicans): 2 µg/mL (≈ 6.53 µM)
